Assay results as given in ChEMBL document CHEMBL1127866, “Cyclopentanespiro-3H-dihydro-pyrimidinones as Angiotensin II AT1 receptor antagonists” (Bioorg Med Chem Lett, 1994).

Assays:
[1] = target: T1, Type-1 angiotensin II receptor B (Rattus norvegicus, UniProt P29089); experiment: In vitro inhibition of specific binding of [125I]AII to Angiotensin II receptor, type 1 from rat liver membrane
T1 sequence (P29089 whole entry): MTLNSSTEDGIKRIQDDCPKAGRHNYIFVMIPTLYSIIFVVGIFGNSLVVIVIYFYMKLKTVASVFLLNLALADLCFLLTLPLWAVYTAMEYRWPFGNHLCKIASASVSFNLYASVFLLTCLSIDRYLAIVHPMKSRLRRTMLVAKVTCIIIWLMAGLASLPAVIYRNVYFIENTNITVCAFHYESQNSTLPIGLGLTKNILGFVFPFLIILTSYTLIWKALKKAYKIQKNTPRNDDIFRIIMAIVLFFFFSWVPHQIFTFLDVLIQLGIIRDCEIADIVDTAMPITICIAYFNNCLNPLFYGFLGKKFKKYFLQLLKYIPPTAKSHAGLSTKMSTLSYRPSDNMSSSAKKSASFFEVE

Monkey [2] = experiment: Tested for induced pressor response to AII (100 ng/kg, iv) in conscious normotensive monkey at a compound dose of 3 mg/kg po for 1 hr; type: functional, Cercopithecidae
Monkey [3] = experiment: Tested for induced pressor response to AII (100 ng/kg, iv) in conscious normotensive monkey at a compound dose of 3 mg/kg po for 2 hr; type: functional, Cercopithecidae
Monkey [4] = experiment: Tested for induced pressor response to AII (100 ng/kg, iv) in conscious normotensive monkey at a compound dose of 3 mg/kg po for 3 hr; type: functional, Cercopithecidae
Monkey [5] = experiment: Tested for induced pressor response to AII (100 ng/kg, iv) in conscious normotensive monkey at a compound dose of 3 mg/kg po for 4 hr; type: functional, Cercopithecidae
Monkey [6] = experiment: Tested for induced pressor response to AII (100 ng/kg, iv) in conscious normotensive monkey at a compound dose of 3 mg/kg po for 0 hr; type: functional, Cercopithecidae
Rattus norvegicus [7] = experiment: Tested for induced pressor response to AII (40 ng/kg, iv) in conscious normotensive rats at a compound dose of 3 mg/kg po for 0 min; type: functional
Rattus norvegicus [8] = experiment: Tested for induced pressor response to AII (40 ng/kg, iv) in conscious normotensive rats at a compound dose of 3 mg/kg po for 120 min; type: functional
Rattus norvegicus [9] = experiment: Tested for induced pressor response to AII (40 ng/kg, iv) in conscious normotensive rats at a compound dose of 3 mg/kg po for 15 min; type: functional
Rattus norvegicus [10] = experiment: Tested for induced pressor response to AII (40 ng/kg, iv) in conscious normotensive rats at a compound dose of 3 mg/kg po for 180 min; type: functional
Rattus norvegicus [11] = experiment: Tested for induced pressor response to AII (40 ng/kg, iv) in conscious normotensive rats at a compound dose of 3 mg/kg po for 30 min; type: functional
Rattus norvegicus [12] = experiment: Tested for induced pressor response to AII (40 ng/kg, iv) in conscious normotensive rats at a compound dose of 3 mg/kg po for 60 min; type: functional
Rattus norvegicus [13] = experiment: Tested for induced pressor response to AII (40 ng/kg, iv) in conscious normotensive rats at a compound dose of 3 mg/kg po for 90 min; type: functional
Monkey [14] = experiment: Tested for induced pressor response to AII (100 ng/kg, iv) in conscious normotensive monkey at a compound dose of 3 mg/kg po for 5 hr; type: functional, Cercopithecidae

IC50 [1] | SMILES | Delta MAP (Monkey [2]) | Delta MAP (Monkey [3]) | Delta MAP (Monkey [4]) | Delta MAP (Monkey [5]) | Delta MAP (Monkey [6]) | Delta MAP (Rattus norvegicus [7]) | Delta MAP (Rattus norvegicus [8]) | Delta MAP (Rattus norvegicus [9]) | Delta MAP (Rattus norvegicus [10]) | Delta MAP (Rattus norvegicus [11]) | Delta MAP (Rattus norvegicus [12]) | Delta MAP (Rattus norvegicus [13]) | Delta MAP (Monkey [14])
1 nM | CCCCC1=NC2(CCCC2)CC(=O)N1Cc1ccc(-c2ccccc2-c2nn[nH]n2)cc1 | ~27 mmHg | ~29 mmHg | ~29 mmHg | ~32 mmHg | ~33 mmHg | ~35 mmHg | ~15 mmHg | ~10 mmHg | ~17 mmHg | ~15 mmHg | ~14 mmHg | ~18 mmHg | –
1300 nM | CCCCC1=NC(=O)C2(CCCC2)CN1Cc1ccc(-c2ccccc2C(=O)O)cc1 | – | – | – | – | – | – | – | – | – | – | – | – | –
– | CCCCC1=NC2(CCCC2)C(=O)N1Cc1ccc(-c2ccccc2-c2nnn[nH]2)cc1 [IRBESARTAN] | ~9 mmHg | ~15 mmHg | ~18 mmHg | ~23 mmHg | ~33 mmHg | ~45 mmHg | ~18 mmHg | ~22 mmHg | ~17 mmHg | ~22 mmHg | ~20 mmHg | ~17 mmHg | ~25 mmHg
53 nM | CCCCC1=NC2(CCCC2)CC(=O)N1Cc1ccc(-c2ccccc2C(=O)O)cc1 | – | – | – | – | – | – | – | – | – | – | – | – | –
2.2 nM | CCCCC1=NC2(CCCC2)C(C)(C)C(=O)N1Cc1ccc(-c2ccccc2-c2nnn[nH]2)cc1 | – | – | – | – | – | – | – | – | – | – | – | – | –
71 nM | CCCCC1=NCC2(CCCC2)C(=O)N1Cc1ccc(-c2ccccc2C(=O)O)cc1 | – | – | – | – | – | – | – | – | – | – | – | – | –
